Measurements taken from patent publication US20220226508A1, “METHODS AND COMPOSITIONS FOR TREATING EPILEPSY” (THE REGENTS OF THE UNIVERSITY OF CALIFORNIA, priority 2019, published 2022).
Entries after “also recorded” stand apart in the source; their conditions may differ. Where two headings read alike, the source gives them in different places.

Assays:
[1] = biological target: T1, human 5-HT2BR (Homo sapiens, UniProt P41595)
T1 construct: expressed in transfected cells

[2] = biological target: T2, human 5-HT2AR (Homo sapiens, UniProt P28223); details: read-out: binding affinity (Ki) 5-HT2A / 5-HT2AR, cited from earlier work
T2 construct: expressed in transfected cells

[3] = biological target: T3, human 5-HT2CR (Homo sapiens, UniProt P28335)
T3 construct: expressed in transfected cells
T3 sequence (P28335 33-458): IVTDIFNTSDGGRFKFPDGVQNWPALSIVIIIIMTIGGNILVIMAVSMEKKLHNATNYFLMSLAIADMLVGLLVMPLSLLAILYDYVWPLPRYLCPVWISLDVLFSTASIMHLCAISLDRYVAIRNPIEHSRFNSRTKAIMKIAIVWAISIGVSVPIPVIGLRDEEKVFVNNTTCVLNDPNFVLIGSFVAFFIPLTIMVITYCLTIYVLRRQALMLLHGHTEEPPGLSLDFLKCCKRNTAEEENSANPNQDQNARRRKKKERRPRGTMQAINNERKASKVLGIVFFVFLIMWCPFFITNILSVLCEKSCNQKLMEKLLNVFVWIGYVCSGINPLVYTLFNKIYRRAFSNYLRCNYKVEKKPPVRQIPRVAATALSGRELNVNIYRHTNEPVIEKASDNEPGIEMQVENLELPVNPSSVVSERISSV

[4] = tested on: scn1lab mutant zebrafish; assay: Locomotion assay of high-velocity seizure-like swim behavior; type: in vivo, zebrafish (Danio rerio); details: for effect on seizure-like swim behavior (change in mean velocity): commercial 5-HT2BR/dopamine agonists, three concentrations
Text: Zebrafish maintenance. Zebrafish were raised under standard laboratory conditions in accordance with requirements outlined in the Guide for the Care and Use of Animals (ebrary Inc., 2011) and experiments were approved by the Institutional Animal Care and Use Committee (protocol #AN108659-03). Embryos were obtained by natural spawning of scn1lab (didy^s552) heterozygous animals that had been outcrossed to TL strain. Homozygous scn1lab mutants (n=2500) have dispersed melanosomes and appear visibly darker by 3 dpf compared to WT larvae.
Seizure monitoring. At 5 dpf individual zebrafish larvae were placed into a single well of a clear flat-bottomed 96-well microplate containing embryo media. Larvae were selected randomly as sex determination is not possible at this stage of development. All drug screening experiments were conducted in an unbiased manner by investigators blinded to the test compounds and all files coded for post hoc analysis. Microplates were placed inside the DanioVision and acclimated for 20 min at room temperature. Locomotion plots were obtained for each well at a recording epoch of 10 min using EthoVision XT software (DanioVision, Noldus Information Technology). Seizure scoring was performed using the following three-stage scale established for pentylenetetrazole-induced seizures: Stage 0, no or very little swim activity; Stage I, increased, brief bouts of swim activity; Stage II, rapid “whirlpool-like” circling swim behavior; and Stage III, paroxysmal whole-body clonus-like convulsions, and a brief loss of posture. WT fish are typically scored at Stage 0 or I. Plots were analyzed for distance travelled (in millimeters) and mean velocity (in millimeters per second). After 90 mins of drug exposure larvae were examined for toxic side-effects. Compounds that decreased or stopped the larva heartbeat, or reduced or eliminated the escape response when touched, were considered toxic.
Statistics. Data are presented as the mean±standard error of the mean (SEM), unless otherwise stated. For behavior analysis, the threshold for a change in mean swim velocity ≥40% (>1.5×SD of 250 control treated scn1lab) is considered significant. For comparison between more than two groups one-way ANOVA analysis was used. […] Differences considered statistically significant are indicated with asterisks (*P<0.05; **P<0.01).

[5] = biological target: T2, human 5-HT2AR; assay: biochemical; type: binding
Procedure: (§1) Receptor Binding Assays. In vitro binding assay and Ki data were performed by the US National Institute of Mental Health Psychoactive Drug Screening Program (NIMH PDSP). Drugs were screened against recombinant, stably expressed human 5-HT2AR, 5-HT2BR, 5-HT2CR and H1. For specific binding assays please refer to detailed procedures at https://pdspdb.unc.edu/pdspWeb/ (Besnard, J. et al., Nature, 492, 215-220, 2012).

[6] = biological target: T1, human 5-HT2BR; assay: biochemical; type: binding; details: for Ki: read-out: binding affinity (Ki) 5-HT2BR
Procedure: as §1

[7] = biological target: T3, human 5-HT2CR; assay: Radioligand binding assay (NIMH PDSP), 5-HT2CR
Procedure: as §1

[8] = tested on: scn1lab mutant zebrafish; assay: Local field potential (LFP) electrophysiology of electrographic seizure events; type: in vivo, zebrafish (Danio rerio); details: 100 μM; 10 min LFP recording, 5 dpf larvae
Procedure: For electrophysiology studies, zebrafish larvae were anesthetized with cold and immobilized in 1.2% agarose; local field potential (LFP) recordings were obtained from forebrain or optic tectum structures using a single-electrode approach, as previously described (Baraban, S. C. et al., Neuroscience, 131, 759-768, 2005). Agarose-embedded LFP recording sessions of 10 min were obtained at 1 kHz. Epileptiform events were identified post hoc and defined as multi-spike or poly-spike upward or downward membrane deflections greater than 3× baseline noise level and 150-250 ms in duration (interictal-like) or greater than 5× baseline noise, multi-spike and >500 ms in duration (ictal-like); both events were counted using threshold detection settings in Clampfit (Molecular Devices; Sunnyvale, Calif.). During electrophysiology experiments larvae were continuously monitored for blood flow and heart rate using an Axiocam digital camera at video frame rate.
Monitoring electrographic brain activity to confirm seizure suppression is an essential assay to eliminate false positives from behavioral testing (Griffin, A. et al., Frontiers in Pharmacology, 9, 2018). By placing a microelectrode into a visually identified brain region of an agar-immobilized zebrafish larval, stable local field potential (LFP) recordings can be monitored for several hours (Baraban, S. C. et al., Nat Commun, 4, 2410, 2013). At 5 dpf LFP recordings of scn1Lab zebrafish larvae show an average of 250 abnormal electrographic seizure events during a 10 min recording epoch.

[9] = biological target: human H1 receptor (Homo sapiens, UniProt P35367); assay: Radioligand binding assay (NIMH PDSP), H1; set-up: expressed in transfected cells; details: read-out: binding affinity (Ki) H1
Procedure: as §1

[10] = known drugs and commercial compounds; read-out: binding affinity (Ki) 5-HT2B / 5-HT2BR; cited from earlier work
[11] = known drugs and commercial compounds
[12] = known drugs and commercial compounds; read-out: binding affinity (Ki) 5-HT2C / 5-HT2CR; cited from earlier work
[13] = read-out: binding affinity (Ki) 5-HT2AR
[14] = clemizole analogs, recombinant human receptor
[15] = 30 and 90 min exposure, threshold ≥40%
[16] = read-out: binding affinity (Ki) 5-HT2CR

T2 sequence (P28223 whole entry): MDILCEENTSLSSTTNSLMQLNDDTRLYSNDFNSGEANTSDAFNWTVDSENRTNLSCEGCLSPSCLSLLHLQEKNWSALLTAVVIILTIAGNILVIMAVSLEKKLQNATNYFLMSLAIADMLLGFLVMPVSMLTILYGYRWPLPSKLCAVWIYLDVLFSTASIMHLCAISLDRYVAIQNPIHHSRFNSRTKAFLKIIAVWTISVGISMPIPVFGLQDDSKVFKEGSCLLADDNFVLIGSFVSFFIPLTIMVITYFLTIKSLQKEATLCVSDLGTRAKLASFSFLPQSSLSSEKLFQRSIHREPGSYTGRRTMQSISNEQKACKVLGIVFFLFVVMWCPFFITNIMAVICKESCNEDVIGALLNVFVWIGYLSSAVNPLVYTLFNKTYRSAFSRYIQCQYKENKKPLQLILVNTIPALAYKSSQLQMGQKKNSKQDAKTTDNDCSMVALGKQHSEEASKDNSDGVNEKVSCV
human H1 receptor, sequence (P35367 whole entry): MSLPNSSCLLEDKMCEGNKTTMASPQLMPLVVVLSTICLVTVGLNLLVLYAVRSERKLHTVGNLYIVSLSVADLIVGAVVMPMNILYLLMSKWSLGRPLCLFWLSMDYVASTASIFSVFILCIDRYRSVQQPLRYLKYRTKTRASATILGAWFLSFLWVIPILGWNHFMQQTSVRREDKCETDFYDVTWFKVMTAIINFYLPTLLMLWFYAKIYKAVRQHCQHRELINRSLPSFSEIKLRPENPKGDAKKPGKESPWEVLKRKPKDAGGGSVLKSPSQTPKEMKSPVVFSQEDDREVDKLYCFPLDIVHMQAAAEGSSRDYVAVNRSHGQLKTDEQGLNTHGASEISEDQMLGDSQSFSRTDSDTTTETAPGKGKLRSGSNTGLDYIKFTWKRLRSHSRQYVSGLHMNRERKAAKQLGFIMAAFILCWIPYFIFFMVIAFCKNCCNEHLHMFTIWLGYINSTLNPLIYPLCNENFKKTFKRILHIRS
T1 sequence (P41595 whole entry): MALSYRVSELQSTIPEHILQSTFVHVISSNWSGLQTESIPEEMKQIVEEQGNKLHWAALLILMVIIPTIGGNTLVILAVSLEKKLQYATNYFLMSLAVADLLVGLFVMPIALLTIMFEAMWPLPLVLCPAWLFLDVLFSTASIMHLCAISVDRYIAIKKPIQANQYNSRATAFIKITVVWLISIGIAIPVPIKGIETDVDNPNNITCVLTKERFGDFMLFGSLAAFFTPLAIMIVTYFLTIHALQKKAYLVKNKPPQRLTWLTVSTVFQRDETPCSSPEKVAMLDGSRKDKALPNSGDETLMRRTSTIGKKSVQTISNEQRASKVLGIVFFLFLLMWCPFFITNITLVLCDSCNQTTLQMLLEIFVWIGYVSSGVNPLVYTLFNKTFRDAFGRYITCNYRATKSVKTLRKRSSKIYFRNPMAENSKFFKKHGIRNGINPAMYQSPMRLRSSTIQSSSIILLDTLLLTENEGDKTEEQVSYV

**Q.** Which results are given for `C=CCN1C[C@H](C(=O)N(CCCN(C)C)C(=O)NCC)C[C@@H]2c3cccc4[nH]cc(c34)C[C@H]21` [cabergoline]?
**A.** Ki [1, 10]: 0.0012 µM; Ki [2, 11]: 0.00617 µM; Ki [3, 12]: 0.692 µM; effect on convulsive swim behavior ([4]; 250 μM): significantly reduced convulsive swim-behavior

**Q.** Which Ki [5, 13] does the source give for `Clc1ccc(Cn2c(CC3CCCC3)nc3ccccc32)cc1` [Compound 1, 1-[(4-Chlorophenyl)methyl]-2-(cyclopentylmethyl)-1H-benzimidazole] here?
**A.** > 10 µM

**Q.** And the Ki [6, 14]?
**A.** 0.501 µM

**Q.** And the Ki ([7]; clemizole analogs, recombinant human receptor, read-out: binding affinity (Ki) 5-HT2CR)?
**A.** 2.73 µM

**Q.** With `Cl.Clc1cccc(N2CCNCC2)c1` [mCPP, 1-(3-Chlorophenyl)piperazine hydrochloride, reference compound] as the compound, how does the “effect on seizure-like swim behavior (change in mean velocity)” value [4, 15] read?
**A.** biphasic response

**Q.** What does the source list for `c1ccc2c(c1)nc(CN1CCCC1)n2CC1CCCCC1` [Compound 4, 1-(Cyclohexylmethyl)-2-[(pyrrolidin-1-yl)methyl]-1H-benzimidazole]?
**A.** frequency of electrographic seizure (epileptiform) events [8]: significant changes in the frequency of events; also recorded: significant suppression of electrographic seizure activity; Ki [5]: > 10 µM; Ki [6, 14]: 0.612 µM; specificity / selectivity for 5-HT2BR over other 5-HT2R subtypes ([6]; radioligand binding): specificity for 5-HT2BR over other 5-HT2R subtypes; also recorded: significant preference for 5-HT2BR; Ki [9, 14]: 0.153 µM; Ki [7]: > 10 µM; suppression of seizure-like swim behavior (change in mean velocity) ([4]; independently resynthesized compounds retested at 10, 50, 100 and 250 μM, 30 and 90 min exposure, threshold ≥40%): reduced the high-velocity seizure-like swim behavior; suppression of seizure-like swim behavior (change in mean swim velocity) ([4]; initial library screen at 100 μM and 250 μM, 5 dpf larvae, threshold reduction ≥40%): effective in suppressing

**Q.** With `CN1CCN(Cc2nc3ccccc3n2Cc2ccc(Cl)cc2)CC1` [Compound 26] as the compound, how does the Ki [5, 13] read?
**A.** 0.316 µM

**Q.** What about the Ki [6] of the same compound?
**A.** 0.02 µM

**Q.** What about the Ki [9] of the same compound?
**A.** 0.0012 µM

**Q.** What about the Ki [7, 16] of the same compound?
**A.** 0.313 µM

**Q.** Which results are given for `Clc1cccc(COc2cncc(N3CCNCC3)n2)c1` [CP-809,101]?
**A.** Ki [1, 10]: 0.006 µM; Ki [2, 11]: 0.0016 µM; Ki [3, 12]: 0.064 µM; effect on seizure-like swim behavior (change in mean velocity) [4, 15]: biphasic response

**Q.** With `Clc1ccc(Cn2c(CN3CCSC3)nc3ccccc32)cc1` [Compound 28] as the compound, how does the Ki [5, 13] read?
**A.** > 10 µM

**Q.** And the Ki [6]?
**A.** 0.464 µM

**Q.** And the Ki [9]?
**A.** 0.044 µM

**Q.** What about the Ki [7, 16] of the same compound?
**A.** 1.08 µM

**Q.** Which Ki ([1]; read-out: binding affinity (Ki) 5-HT2B / 5-HT2BR; known drugs and commercial compounds; cited from earlier work) does the source give for `CC(N)Cc1cccc(C(F)(F)F)c1` (stereo not drawn) [norfenfluramine] here?
**A.** 0.018 µM

**Q.** What about the Ki [2] of the same compound?
**A.** 0.194 µM

**Q.** And the Ki ([3]; read-out: binding affinity (Ki) 5-HT2C / 5-HT2CR; known drugs and commercial compounds; cited from earlier work)?
**A.** 0.306 µM

**Q.** What about the “effect on seizure-like swim behavior (change in mean velocity)” value [4, 15] of the same compound?
**A.** suppressed convulsive swim behaviors in a concentration-dependent manner

**Q.** Which results are given for `CN(C)C1CCc2cc(O)c(O)cc2C1` (stereo not drawn) [TL-99]?
**A.** Ki [1, 10]: 2.04 µM; Ki [2, 11]: 2.34 µM; Ki [3, 12]: 2.29 µM; effect on seizure-like swim behavior (change in mean velocity) [4, 15]: failed to elicit any behavioral effect
